One series relates to fulminant hepatitis. Description: Survival of model rats with induced fulminant hepatitis (D-galactosamine hydrochloride and lipopolysaccharide). The class given is in vivo, Wister rats.
The nature of a further series: in vivo. The arrangement: species or system ddy-N mice. The settings on record: mouse. The protocol: Acute toxicity of ethyl docosahexaenoate was tested.
Tested animal: ddy-N mice, 5-week age, 5 male and 5 female
All tested mice were anatomically evaluated after the test.

Method for fulminant hepatitis: Male Wister rats of 200 g weight were processed to be model animals for inducing hepatitis. Namely, 1500 mg/kg-weight of D-galactosamine hydrochloride was intestinally administrated and, at the same time, 10 μg of lipopolysaccharide derived from E. coli 0111:B4 was injected intravenously.

Consider `CC/C=C\C/C=C\C/C=C\C/C=C\C/C=C\C/C=C\CCC(=O)OCC(COC(=O)CC/C=C\C/C=C\C/C=C\C/C=C\C/C=C\C/C=C\CC)OC(=O)CC/C=C\C/C=C\C/C=C\C/C=C\C/C=C\C/C=C\CC` [DHA triglyceride], for which the “model rats survived more than 24 hours” value with fulminant hepatitis (emulsion containing 10% of 99% pure DHA triglyceride, simultaneous with hepatitis inducer) is 67%. For the same compound, the induction of hepatitis entry with fulminant hepatitis (model rats, result in words) is “inhibits the induction of hepatitis”.
The LD50 is the dose expected to kill half of the subjects tested. For `CC/C=C\C/C=C\C/C=C\C/C=C\C/C=C\C/C=C\CCC(=O)OCC` [ethyl docosahexaenoate], the LD50 in the series “in vivo” was above 2000 mg/kg. In addition, the rats survived with fulminant hepatitis (emulsion of ethyl ester of 99% pure DHA, same experiment as Example 2, control rats died within 24 hours) amounted to 75%.
